From patent US20050090471A1, “Inhibitors of cyclin-dependent kinases, compositions and uses related thereto” (GPC Biotech, Inc, priority 2001, published 2005)

What was measured:
[1] = test system: NCI panel of 60 cell lines; test: NCI panel of human tumor cell lines (SRB assay), MG-MID; assay type: cell-based; details: 48 hours incubation with compound
Source text: (§1) The evaluation of compounds at the National Cancer Institute in their panel of 60 cell lines provides a wealth of information regarding efficacy in a wide range of tumor types and genetic backgrounds. Included within this panel are cell lines derived from leukemia, melanoma and cancers of the lung, colon, brain, ovary, breast, prostate and kidney. Use of this panel provides a measure of the efficacy of compounds in cells with alterations in many genes that are associated with neoplastic transformation including p53 and Her2/Neu as well as those involved in metabolism and those which confer multi-drug resistance. The data generated in these cell lines with the protocol described below can be used to evaluate the activity of compounds.
(§2) Cells were grown in RPMI-1640 10% FCS and plated in 96 well micro-titer plates at densities ranging from 5,000 to 40,000 cells/well. The plates were incubated for 24 hours at 37° C., 5% CO2 for 24 hours. Media containing twice the desired final concentration of the compound (5 doses spanning 4 logs) was prepared and 100 μl was added to each well containing 100 μl media plus cells to yield the desired final concentration. The plates were then incubated for an additional 48 hours.
(§3) The effect of the compound on cellular viability was determined with the Sulforhodamine B (SRB) assay which measures total protein. Cells were fixed with cold TCA to a fmal concentration of 10% and incubated at 4° C. for 60 minutes. The supernatant was discarded and the plates were washed five times with water and air-dried. SRB solution at […] in 1% acetic acid was added to each well and the plates were incubated for 10 minutes at room temperature. The plates were washed five times with 1% acetic acid and air-dried. The bound stain was solubilized with 10 mM trizma base and the absorbance was read on a plate reader at […].

[2] = test system: ADR-res; test: NCI panel (SRB assay), ADR-res cell line; assay type: cell-based, human; details: 48 hours incubation with compound, unit not given
Source text: as §1, §2, §3

[3] = test system: arrested HCT-116 cells; test: Arrested cell assay (serum starvation), HCT-116; assay type: cell-based, human; set-up: unit not given here; details: serum-starved arrested cells; unit not given
Procedure: Cyclin-dependent kinase (Cdk) activity is required to promote the progression of cells through distinct phases of the cell division cycle. The proliferation of normal, non-transformed, cells in culture requires the presence of growth factors, the removal of which, through serum deprivation, leads to a loss of Cdlc activity and consequent exit from the cell cycle as cells enter the quiescent phase, Go.
HCT-116 cells were plated in triplicate for each compound concentration to be tested in RPMI 1640 media containing 10% fetal calf serum at a density of either 200 or 2,000 cells per well in 24 well dishes, and incubated overnight at 37° C., 5% CO2. The media from the plate containing 2,000 cells per well was removed, cells were washed once with serum free media and 1 ml of serum free media was placed on cells. Tle plates containing cells both in the presence and absence of serum were incubated for 6 additional days.
To ensure that the cells had indeed exited the cell cyde upon serum withdrawal, the percentage of BrdU positive cells, indicative of those progressing through S phase, was determined in each experiment. For the purpose of this experiment, cellular viability was evaluated simultaneously with the use of SNARF-1, a fluorescent substrate of intracellular esterases which are only active in viable cells. Together, the evaluation of BrdU incorporation and SNARF-1 cleavage by flow cytometry provided an assessment of the viability of arrested cells on a single cell basis. For this analysis, the cells were stained with SNARF-1 as follows and then prepared for determination of BrdU incorporation as described above.
HCT-116 and IMR90 cells were plated at the density described below in T25 flasks in serum-containing media (RPMI-1640 or MEM-a with 10% FCS, respectively). After 24 hours of growth, the media was removed and, after washing the cells, replaced with serum-free media. • HCT-116+FCS 5,000 cells • HCT-116−FCS 100,000 cells • IMR90+FCS 100,000 cells • IMR90−FCS 200,000 cells
The IMR90 cells were grown for an additional 3 days and the HCT-116 cells were grown for an additional 6 days before pulsing with BrdU. A 50 μg aliquot of SNARF-1 (Molecular Probes catalog #C1272) was dissolved in 50 μl DMSO at room temperature for 10 minutes and then diluted into 10 ml PBS. The SNARF-1 was further diluted 1:64,000 before 200 μl was added to each tube of cells which had been cultured in the presence or absence of serum and pulsed with BrdU for 20 hours. The cells were incubated at 37° C. for 30 minutes and then washed with 3 ml of PBS.
These cells were then fixed and prepared for the measurement of BrdU incorporation as described above. The percentage of viable (FL-2) and BrdU positive (FL-1) cells was determined on a FACScan flow cytometer.

[4] = test system: IMR90; test: Calcein AM viability assay, IMR90; assay type: cell-based; details: IMR-90, normal human fibroblast, 72-hours incubation
Procedure: The potency of Cdk inhibitors, as measured by loss of cellular viability, was determined with the Calcein AM assay (Molecular Probes). Calcein AM is a substrate of intracellular esterases, which is cleaved only in viable cells to generate a fluorescent product that can be quantified with a fluorescent plate reader. The fluorescent signal is proportional to the number of viable cells, and thus loss of signal in response to the exposure of cells to Cdk inhibitors correlates with a loss of viability. This assay distinguishes cell cycle arrest from loss of viability and is thus well suited for the evaluation of Cdk inhibitors.
Cellular IC50's were determined in the human colorectal carcinoma cell line, HCT-116, and the normal human fibroblast, IMR90. Protein adjusted IC50's were also determined in HCT-116. Results are presented in Table 3 below (HCT-116 (viability/protein adjusted) and IMR-90).
HCT-116 or IMR90 cells were recovered from sub-confluent plates by trypsinization and 1,000 or 4,000 cells, respectively, were plated in 24-well dishes and incubated overnight at 37° C., 5% CO2. HCT-116 cells were cultured in RPMI-1640, 10% FCS, and IMR90 cells were cultured in Minimum Essential Medium-alpha, 10% FCS. After overnight incubation to allow.adlierence, the media was aspirated from each well and replaced with media containing a test compound at a concentration from 0 to 250 nM, spanning a total of 7 doses. The plates were returned to the incubator and cultured for an additional 3 days. […] After 72-hours incubation with the test compound, the cells were washed twice with 1×PBS, talking special care to remove all residual buffer.
A 5 μM Calcein AM. solution was prepared by dissolving a 50 μg aliquot of Calcein (Molecular Probes catalog # C3100) in 50 μl DMSO. After the Calcein had completely dissolved (10 minutes at room temperature), it was diluted into 10 ml PBS. Calcein/PBS (0.5 ml) was added to each well. The plates were incubated for 75 minutes at 37° C. (protected from light) and the fluorescent signal was read on a fluorescent plate reader (excitation 485/20 and emission 530/25).

| Compound | NCI panel MG-MID [1] [µM] | NCI panel ADR-res [2] | Arrested cell HCT [3] | IC50 [4] [nM] |
| --- | --- | --- | --- | --- |
| CC(C)c1nn(-c2c(Cl)cccc2Cl)c2nc(Cc3ccc(O)c(CN4CCN(C(C)C)CC4)c3)[nH]c(=O)c12.Cl.Cl [Compound C] | <0.1 | <0.1 | <0.01 | < 100 |
| Cl.Cl.Cl.O=C(Nc1cccc2c1C(=O)c1c-2n[nH]c1-c1ccc(OCCN2CCCC2)cc1)NN1CCOCC1 [Compound I] | <0.1 | <1 | <0.1 | < 100 |
| CC(C)N1CCN(CCOc2ccc(-c3[nH]nc4c3C(=O)c3c(NC(=O)NN5CCOCC5)cccc3-4)cc2)CC1.Cl.Cl.Cl [E] | <0.1 | <1 | <0.1 | < 100 |
| CN1CCN(NC(=O)Nc2cccc3c2C(=O)c2c-3n[nH]c2-c2ccc(OCCN3CCCC3)cc2)CC1.Cl.Cl.Cl [F] | <0.1 | <1 | <0.1 | < 100 |
| CCCN(CCOc1ccc(-c2[nH]nc3c2C(=O)c2c(NC(=O)NN4CCOCC4)cccc2-3)cc1)CC1CC1.Cl.Cl.Cl [G] | <0.1 | <1 | <0.1 | < 100 |
| Cl.Cl.Cl.O=C(Nc1cccc2c1C(=O)c1c-2n[nH]c1-c1ccc(OCCN(CCO)CCO)cc1)NN1CCOCC1 [H] | <0.1 | >10 | <0.1 | < 100 |
| CC(C)N1CCN(Cc2cc(-c3[nH]nc4c3C(=O)c3c(NC(=O)NN5CCOCC5)cccc3-4)ccc2O)CC1.Cl.Cl.Cl.Cl [K] | <0.1 | <10 | <0.01 | > 100 |
| CN1CCN(NC(=O)Nc2cccc3c2C(=O)c2c-3n[nH]c2-c2ccc(OCCN3CCOCC3)cc2)CC1.Cl.Cl [Q] | <0.1 | <10 | <0.1 | < 100 |
